From US7902367B2, “Cyclic amino benzoic acid derivative” (Kyorin Pharmaceutical Co., Ltd., priority 2004, dated 2011)

Molecular target: T1, human PPARα (Homo sapiens, UniProt Q07869)
T1 construct: expressed in transfected cells; host or cells: CHO-K1 cells
T1 sequence (Q07869 239-466 limits assumed): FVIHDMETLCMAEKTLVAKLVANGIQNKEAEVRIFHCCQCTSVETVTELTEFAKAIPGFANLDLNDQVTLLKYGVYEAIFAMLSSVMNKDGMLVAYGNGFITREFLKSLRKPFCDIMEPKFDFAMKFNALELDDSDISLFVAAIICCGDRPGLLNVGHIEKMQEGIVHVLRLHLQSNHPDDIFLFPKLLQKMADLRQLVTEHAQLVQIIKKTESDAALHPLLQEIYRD
Test: Activation of transcription of human PPARα (Gal4-PPARα LBD luciferase reporter assay in CHO-K1 cells)
Assay type: cell-based
Conditions: CHO-K1 cells cotransfected with Gal4 DNA-binding domain/human PPARα ligand-binding domain receptor plasmid, firefly luciferase reporter and renilla internal standard; 20 hours at 37° C.
From the text: Activation of Transcription of Human Peroxisome Proliferator-Activated Receptor (PPAR) α
CHO-K1 cells cultured in Ham's F12 medium supplemented with 10% fetal calf serum were cotransfected with the following plasmids: A receptor plasmid encoding a fusion protein consisting of the DNA-binding domain of yeast transcription factor Gal4 fused to the ligand-binding domain of human PPARα (Biochemistry, 1993, 32, 5598), a reporter plasmid (STRATAGENE, firefly luciferase reporter plasmid), and a renilla luciferase plasmid for internal standard (Promega). The cotransfection was performed over a 2-hour period by using Lipofectamine (INVITROGEN) in the absence of serum. Subsequently, a test compound was added in Ham's F12 medium supplemented with 10% defatted bovine serum. The cells were then incubated at 37° C. for 20 hours. The activity of each luciferase was then determined and corrected for internal standard.

SMILES | EC50 [nM]
Cc1nc(-c2ccc(Cl)cc2)sc1CNC(=O)C1CCCN(c2ccccc2C(=O)O)C1 (stereo not shown) [Example 20] | 1360
Cc1nc(-c2ccc(Cl)cc2)sc1C(=O)NCC1CCCN(c2cccc(C(=O)O)c2)C1 (stereo not shown) [Example 19] | 970
Cc1nc(-c2ccc(Cl)cc2)sc1COCC1CCCN(c2ccccc2C(=O)O)C1 (stereo not shown) [Example 22] | 160
Cc1nc(-c2ccc(Cl)cc2)sc1C(=O)NCC1CCCN(c2ccccc2C(=O)O)C1 (stereo not shown) [Example 18, 2-[3-[[2-(4-Chlorophenyl)-4-methylthiazol-5-yl]carbonylaminomethyl]piperidin-1-yl]benzoic acid] | 65

Second part, the compound after the results:

EC50 [nM] | SMILES
20 | Cc1nc(-c2ccc(Cl)cc2)sc1C(=O)NC1CCCN(c2cccc(C(=O)O)c2)C1 (stereo not shown) [Example 32]
560 | Cc1nc(-c2ccc(Cl)cc2)sc1COC1CCCN(c2cccc(C(=O)O)c2)C1 (stereo not shown) [Example 25]
1540 | Cc1nc(-c2ccc(Cl)cc2)sc1COCC1CCCN(c2cccc(C(=O)O)c2)C1 (stereo not shown) [Example 24]
